Results published in ChEMBL document CHEMBL4765258 (Eur J Med Chem, 2020).
Active and inactive are the calls of the source. No cut-off for these calls is given here.

Columns and labels:
[1] = target: T1, Nuclear factor erythroid 2-related factor 2 (Homo sapiens) (UniProt Q16236); assay: Activation of NRF2 in human AREc32 cells incubated for 24 hrs by luciferase reporter gene assay; format: cell-based
T1 sequence (whole entry): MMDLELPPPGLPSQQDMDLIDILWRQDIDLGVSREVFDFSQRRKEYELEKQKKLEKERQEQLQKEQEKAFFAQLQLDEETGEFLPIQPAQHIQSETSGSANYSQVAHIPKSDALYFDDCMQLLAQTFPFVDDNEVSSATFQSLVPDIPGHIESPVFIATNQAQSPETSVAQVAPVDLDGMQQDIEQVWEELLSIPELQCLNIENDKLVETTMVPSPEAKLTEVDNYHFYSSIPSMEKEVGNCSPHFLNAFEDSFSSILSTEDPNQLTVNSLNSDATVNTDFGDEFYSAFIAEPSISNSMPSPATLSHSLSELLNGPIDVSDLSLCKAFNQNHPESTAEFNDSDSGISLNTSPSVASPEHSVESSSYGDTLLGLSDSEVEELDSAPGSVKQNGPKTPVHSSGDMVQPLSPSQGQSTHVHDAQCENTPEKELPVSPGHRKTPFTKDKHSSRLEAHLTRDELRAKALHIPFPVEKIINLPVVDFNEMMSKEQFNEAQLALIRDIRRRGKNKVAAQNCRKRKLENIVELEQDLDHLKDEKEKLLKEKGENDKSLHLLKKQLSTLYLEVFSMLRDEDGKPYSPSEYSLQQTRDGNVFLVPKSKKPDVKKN

[2] = Antioxidant activity assessed as AAPH radical scavenging activity preincubated for 15 mins measured every min for 80 mins by ORAC-FL assay relative to trolox; format: functional
[3] = target: T2, Melatonin receptor type 1B (Homo sapiens, UniProt P49286); assay: Displacement of [125l]-lodomelatonin from human MT2 receptor expressed in CHO cells incubated for 120 mins by scintillation counting analysis; format: cell-based
T2 sequence (P49286 whole entry): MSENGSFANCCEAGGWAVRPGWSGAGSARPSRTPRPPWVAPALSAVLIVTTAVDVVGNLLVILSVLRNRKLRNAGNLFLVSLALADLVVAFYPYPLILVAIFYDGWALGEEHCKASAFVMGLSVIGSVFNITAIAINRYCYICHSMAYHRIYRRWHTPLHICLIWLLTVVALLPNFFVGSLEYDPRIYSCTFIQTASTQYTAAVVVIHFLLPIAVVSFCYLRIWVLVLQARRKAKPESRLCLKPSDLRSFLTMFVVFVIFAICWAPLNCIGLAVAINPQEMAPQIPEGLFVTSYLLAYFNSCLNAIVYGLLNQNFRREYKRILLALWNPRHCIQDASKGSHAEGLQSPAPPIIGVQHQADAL

[4] = target: T3, Polyunsaturated fatty acid 5-lipoxygenase (Homo sapiens, UniProt P09917); assay: Inhibition of human 5-Lipoxygenase using H2DCFDA as substrate preincubated for 5 mins and measured by Spectrophotometric assay
T3 sequence (P09917 whole entry): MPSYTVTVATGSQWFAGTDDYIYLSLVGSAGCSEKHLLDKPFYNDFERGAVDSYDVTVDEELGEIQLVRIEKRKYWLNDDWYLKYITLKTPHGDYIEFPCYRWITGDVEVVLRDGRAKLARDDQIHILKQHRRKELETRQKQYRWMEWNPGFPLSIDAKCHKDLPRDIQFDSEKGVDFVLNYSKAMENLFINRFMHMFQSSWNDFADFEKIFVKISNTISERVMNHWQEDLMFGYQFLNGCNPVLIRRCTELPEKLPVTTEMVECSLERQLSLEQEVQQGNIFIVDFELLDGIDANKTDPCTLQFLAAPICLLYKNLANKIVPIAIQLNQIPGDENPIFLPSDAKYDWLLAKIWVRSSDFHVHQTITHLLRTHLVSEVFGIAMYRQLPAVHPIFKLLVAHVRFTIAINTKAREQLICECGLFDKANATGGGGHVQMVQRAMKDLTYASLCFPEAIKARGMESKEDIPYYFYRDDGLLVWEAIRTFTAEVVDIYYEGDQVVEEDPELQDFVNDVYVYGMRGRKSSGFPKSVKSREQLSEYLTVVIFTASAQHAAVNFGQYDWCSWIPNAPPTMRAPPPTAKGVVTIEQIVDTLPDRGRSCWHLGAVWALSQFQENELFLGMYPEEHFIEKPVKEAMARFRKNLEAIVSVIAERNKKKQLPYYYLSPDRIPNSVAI

[5] = target: T4, Amine oxidase [flavin-containing] B (Homo sapiens, UniProt P27338)
T4 sequence (P27338 whole entry): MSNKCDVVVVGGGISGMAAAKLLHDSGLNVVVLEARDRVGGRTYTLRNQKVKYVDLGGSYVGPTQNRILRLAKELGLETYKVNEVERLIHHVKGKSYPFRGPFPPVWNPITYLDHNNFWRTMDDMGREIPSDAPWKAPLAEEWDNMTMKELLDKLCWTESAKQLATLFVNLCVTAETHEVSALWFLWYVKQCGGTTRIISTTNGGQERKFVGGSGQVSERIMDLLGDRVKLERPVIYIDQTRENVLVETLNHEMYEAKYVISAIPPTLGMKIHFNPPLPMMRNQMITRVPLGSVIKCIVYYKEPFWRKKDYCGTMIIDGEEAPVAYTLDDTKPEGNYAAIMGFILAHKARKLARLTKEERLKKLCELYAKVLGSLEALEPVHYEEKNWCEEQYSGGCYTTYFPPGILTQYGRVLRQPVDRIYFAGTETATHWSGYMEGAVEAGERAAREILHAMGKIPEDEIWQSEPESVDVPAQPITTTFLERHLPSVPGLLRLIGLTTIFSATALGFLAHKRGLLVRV
Description: Inhibition of human MAO-B using p-tyramine as substrate by Amplex Red reagent based fluorescence analysis

[6] = target: T5, Melatonin receptor type 1A (Homo sapiens, UniProt P48039); assay: Displacement of [125l]-lodomelatonin from human MT1 receptor expressed in CHO cells incubated for 120 mins by scintillation counting analysis; format: cell-based
[7] = target: T6, Amine oxidase [flavin-containing] A (Homo sapiens, UniProt P21397)
T6 sequence (P21397 whole entry): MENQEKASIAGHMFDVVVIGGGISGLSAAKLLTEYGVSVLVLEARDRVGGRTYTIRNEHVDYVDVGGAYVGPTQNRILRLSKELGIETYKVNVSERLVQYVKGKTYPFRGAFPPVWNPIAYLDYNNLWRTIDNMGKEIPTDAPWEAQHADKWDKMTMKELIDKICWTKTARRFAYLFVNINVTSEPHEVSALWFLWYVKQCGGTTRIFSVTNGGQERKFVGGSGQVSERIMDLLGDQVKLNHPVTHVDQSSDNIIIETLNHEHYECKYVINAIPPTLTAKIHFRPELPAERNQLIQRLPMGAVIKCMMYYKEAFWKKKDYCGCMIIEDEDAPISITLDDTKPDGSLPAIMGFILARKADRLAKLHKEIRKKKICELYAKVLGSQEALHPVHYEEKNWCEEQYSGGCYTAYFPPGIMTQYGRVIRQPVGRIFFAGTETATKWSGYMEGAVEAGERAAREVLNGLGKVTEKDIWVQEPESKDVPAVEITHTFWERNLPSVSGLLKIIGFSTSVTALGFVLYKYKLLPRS
Description: Inhibition of human MAO-A using p-tyramine as substrate by Amplex Red reagent based fluorescence analysis

[8] = Displacement of [125l]-lodomelatonin from hamster brain cell QR2 incubated for 60 mins by scintillation counting analysis
[9] = target: Kelch-like ECH-associated protein 1 (Homo sapiens) (UniProt Q14145); assay: Binding affinity to human recombinant Keap1 Kelch domain expressed in Escherichia coli BL21 (DE3) by SPR assay
[10] = tested on: Cricetinae; assay: Displacement of [125l]-lodomelatonin from hamster brain cell QR2 at 100 nM incubated for 60 mins by scintillation counting analysis relative to control; format: tissue-based
[11] = Permeability of compound by PAMPA-BBB assay
[12] = target: T5, Melatonin receptor type 1A; assay: Displacement of [125l]-lodomelatonin from human MT1 receptor expressed in CHO cells incubated for 120 mins by scintillation counting analysis relative to control; format: cell-based

Kelch-like ECH-associated protein 1 (Homo sapiens), sequence (Q14145 whole entry, the tested form may be a part): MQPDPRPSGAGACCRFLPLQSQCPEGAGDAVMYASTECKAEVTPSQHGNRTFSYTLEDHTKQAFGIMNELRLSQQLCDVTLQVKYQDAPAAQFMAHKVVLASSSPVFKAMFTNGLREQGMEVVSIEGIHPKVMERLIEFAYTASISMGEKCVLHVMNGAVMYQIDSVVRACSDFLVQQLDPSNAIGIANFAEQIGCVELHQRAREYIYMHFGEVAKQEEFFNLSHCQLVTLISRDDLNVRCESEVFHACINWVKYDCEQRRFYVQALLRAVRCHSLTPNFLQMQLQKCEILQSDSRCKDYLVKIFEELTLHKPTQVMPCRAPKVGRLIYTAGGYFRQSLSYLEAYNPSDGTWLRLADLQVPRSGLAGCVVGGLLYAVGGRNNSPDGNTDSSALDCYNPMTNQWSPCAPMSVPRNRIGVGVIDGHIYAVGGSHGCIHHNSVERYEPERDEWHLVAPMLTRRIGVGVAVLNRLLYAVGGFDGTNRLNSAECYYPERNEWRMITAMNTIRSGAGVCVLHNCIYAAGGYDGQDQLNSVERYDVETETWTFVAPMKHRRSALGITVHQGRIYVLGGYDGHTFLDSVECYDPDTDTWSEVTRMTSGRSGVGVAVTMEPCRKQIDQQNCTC
T5 sequence (P48039 whole entry): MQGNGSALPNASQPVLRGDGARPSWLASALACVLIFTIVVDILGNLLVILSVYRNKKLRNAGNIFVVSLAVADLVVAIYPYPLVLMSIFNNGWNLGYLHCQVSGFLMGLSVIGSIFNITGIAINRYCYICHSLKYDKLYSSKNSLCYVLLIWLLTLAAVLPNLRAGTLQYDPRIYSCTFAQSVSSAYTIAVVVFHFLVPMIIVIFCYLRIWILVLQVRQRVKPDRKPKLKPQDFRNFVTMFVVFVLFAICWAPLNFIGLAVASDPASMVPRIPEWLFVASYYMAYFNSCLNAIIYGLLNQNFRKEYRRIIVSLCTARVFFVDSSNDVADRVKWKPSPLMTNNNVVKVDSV

SMILES: COc1ccc2c(c1)C(/C=C/c1n[nH]c(=O)o1)=CCC2
- CD [1]: > 30 µM

SMILES: COc1ccc2[nH]cc(CCc3nn(CC4CCC4)c(=O)o3)c2c1
- Activity [2]: 2.2 equiv

SMILES: CNc1nnc(CCc2c[nH]c3ccc(OC)cc23)o1
- Ki [3]: 110 nM
- IC50 [4]: 60600 nM
- IC50 [5]: 37000 nM
- Ki [6]: 550 nM
- IC50 [7]: > 50000 nM
- Ki [8]: 330 nM
- Activity [2]: 1.8 equiv

SMILES: COc1ccc2[nH]cc(/C=C/c3n[nH]c(=O)o3)c2c1
- Activity [9]: Active
- CD [1]: > 60 µM

SMILES: CCCCCCn1nc(CCc2c[nH]c3ccc(OC)cc23)oc1=O
- Activity [2]: 3 equiv

SMILES: C=CCNC(=O)/C=C/c1c[nH]c2ccc(OC)cc12
- Activity [9]: inactive
- CD ([1]; filed as activator): 27.4 µM

SMILES: COc1ccc2[nH]cc(CCNC(C)=O)c2c1 [MELATONIN]
- Ki [8]: 77 nM
- Activity [2]: < 0.1 equiv

SMILES: COc1ccc2[nH]cc(CCc3nn(CC4CCCC4)c(=O)o3)c2c1
- Activity [2]: 2.8 equiv

SMILES: COc1ccc2[nH]cc(CCc3n[nH]c(=O)o3)c2c1
- inhibition [10]: 5%
- Ki [8]: > 100 nM
- Activity [2]: 2.7 equiv
- Papp [11]: < 2 ×10⁻⁶ cm/s

SMILES: C[S+]([O-])CCCCN=C=S (centres undefined)
- CD ([1]; filed as activator): 0.54 µM

SMILES: C#CCn1nc(/C=C/c2c[nH]c3ccc(OC)cc23)oc1=O
- Activity [9]: Active
- CD ([1]; filed as activator): 15.1 µM

SMILES: CCCCCCCn1nc(CCc2c[nH]c3ccc(OC)cc23)oc1=O
- Activity [2]: 2.1 equiv

SMILES: COc1ccc2cccc(/C=C/c3n[nH]c(=O)o3)c2c1
- CD [1]: > 30 µM

SMILES: C#CCNC(=O)/C=C/c1c[nH]c2ccc(OC)cc12
- Activity [9]: Active
- CD ([1]; filed as activator): 1.76 µM

SMILES: COc1ccc2[nH]cc(CC(C)c3n[nH]c(=O)o3)c2c1 (centres undefined)
- Activity [9]: inactive
- CD [1]: > 30 µM

SMILES: COc1ccc2[nH]cc(CCc3nn(CCCc4ccccc4)c(=O)o3)c2c1
- Activity [2]: 2.7 equiv

SMILES: COc1cc2cccc(/C=C/c3n[nH]c(=O)o3)c2cc1OC
- Ki [3]: 69 nM
- Activity [9]: inactive
- Ki [6]: > 1000 nM
- Activity [2]: < 0.1 equiv
- inhibition [12]: 63%
- CD [1]: > 30 µM

SMILES: CCCn1nc(CCc2c[nH]c3ccc(OC)cc23)oc1=O
- Activity [9]: inactive
- Activity ([1]; filed as activator): 2.3 equiv
